We go through 14 compounds from patent US20260070917A1, “CYCLIN DEPENDENT KINASE DEGRADERS AND METHODS OF USE THEREOF” (Differentiated Therapeutics Inc, priority 2023, published 2026).

The structures appear in SMILES notation. Read-outs that look alike come from different tables or passages of the source.

Holding throughout (format): cell-based
In assay [1] the target is T1, CDK9 (Homo sapiens, UniProt P50750).
T1 construct: host or cells: HEK293-CDK9-Hibit
The assay can be described thus: HiBit Assay Protocol for CDK9 (HIBIT protein quantification, degradation). The note with it: HEK293-CDK9-Hibit cells, compound treatment for 6 hours, read-out: CDK9 HIBIT Protein Quantification Maximum. Put shortly: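 HEK293 cells carrying HiBiT-tagged CDK9 treated 6 h with compounds in a 3-fold, 10-point dilution series. CDK9 level read by lytic Nano-Glo HiBiT/LgBiT luminescence and normalized to 0.1% DMSO (high) and medium-only (low) controls. DC50 from curve fitting.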
On the technique in general: With HiBiT, luminescence reflects the tagged protein that the partner subunit can reach.

Assay [2] concerns the target T2, CCNE1 (Homo sapiens, UniProt P24864).
T2 construct: host or cells: HEK293-CCNE1-Hibit
As to the kind of experiment: HiBit Assay Protocol for CCNE1 (HIBIT protein quantification, degradation). The following applies: HEK293-CCNE1-Hibit cells, compound treatment for 6 hours. Put shortly: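 HEK293 cells expressing HiBiT-tagged CCNE1 were seeded overnight, then treated 6 h with a 3-fold, 10-point compound dilution series. HiBiT levels were read by lytic LgBiT luminescence and normalised to DMSO-only (high) and medium-only (low) controls. DC50 was derived by curve fitting.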

Assay [3] has as its target T3, CDK2 (Homo sapiens, UniProt P24941).
T3 construct: host or cells: HEK293-CDK2-Hibit
As to the kind of experiment: HiBit Assay Protocol for CDK2 (HIBIT protein quantification, degradation). The following applies: HEK293-CDK2-Hibit cells, compound treatment for 6 hours; for DC50: ABS DC50. Put shortly: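 HEK293 cells expressing HiBiT-tagged CDK2 were seeded overnight, then treated 6 h with a 3-fold, 10-point compound dilution series. CDK2 levels were read as luminescence after lytic HiBiT/LgBiT detection, normalised to DMSO-only and medium-only controls, and DC50 derived by curve fitting.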

T2 sequence (P24864 whole entry): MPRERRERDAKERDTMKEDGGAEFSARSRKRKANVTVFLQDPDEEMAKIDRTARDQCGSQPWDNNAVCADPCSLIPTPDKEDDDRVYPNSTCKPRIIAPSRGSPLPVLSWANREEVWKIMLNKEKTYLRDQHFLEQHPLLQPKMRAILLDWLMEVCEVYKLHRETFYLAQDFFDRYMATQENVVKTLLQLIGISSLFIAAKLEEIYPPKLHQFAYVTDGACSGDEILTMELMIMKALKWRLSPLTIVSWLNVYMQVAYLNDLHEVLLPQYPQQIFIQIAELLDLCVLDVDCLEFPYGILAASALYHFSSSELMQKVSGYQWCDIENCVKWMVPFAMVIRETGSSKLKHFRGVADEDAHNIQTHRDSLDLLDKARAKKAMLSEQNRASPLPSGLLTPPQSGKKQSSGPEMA
T1 sequence (P50750 whole entry): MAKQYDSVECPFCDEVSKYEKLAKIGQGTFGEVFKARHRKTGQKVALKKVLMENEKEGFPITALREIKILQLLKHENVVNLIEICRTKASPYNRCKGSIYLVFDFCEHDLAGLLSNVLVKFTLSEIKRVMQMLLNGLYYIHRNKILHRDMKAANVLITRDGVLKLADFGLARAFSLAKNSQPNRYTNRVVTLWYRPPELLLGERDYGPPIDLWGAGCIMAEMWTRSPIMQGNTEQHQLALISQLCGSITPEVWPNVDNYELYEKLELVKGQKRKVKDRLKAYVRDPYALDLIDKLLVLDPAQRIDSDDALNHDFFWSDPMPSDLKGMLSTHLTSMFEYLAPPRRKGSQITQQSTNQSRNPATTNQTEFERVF

Regarding `CC1CCCC1N1C(=O)C2(CC2)c2cnc(NC3CCN(S(=O)(=O)N4CCCC45CCN(C(=O)CCCc4cccc6c4n(C)c(=O)n6C4CCC(=O)NC4=O)C5)CC3)nc21` (centres unmarked) [Compound 24], the Dmax in assay [1] (6 h) is -1%. Also, the “CCNE1 HIBIT Protein Quantification Maximum” value in assay [2] is 21%. Further, the “CDK2 HIBIT Protein Quantification Maximum” value in assay [3] was determined as 41%.

Usually DC50 stands for the midpoint of the concentration-degradation curve. A higher DC50 goes with degradation only at high concentration. In the case of `Cn1nc(N2CCC(=O)NC2=O)c2ccc(C3CCN(Cc4cc(S(=O)(=O)N5CCC(Nc6ncc7c(n6)N([C@@H]6CCC[C@@H](O)C6)C(=O)C76CC6)CC5)ccc4F)CC3)cc21` [Compound 169, 1-[6-(1-{[2-Fluoro-5-(4-{7′-[(1R,3R)-3-hydroxycyclohexyl]-6′-oxospiro[cyclopropane-1,5′-pyrrolo[2,3-d]pyrimidin]-2′-ylamino}piperidin-1-ylsulfonyl)phenyl]methyl}piperidin-4-yl)-1-methylindazol-3-yl]-1,3-diazinane-2,4-dione], the Dmax in assay [1] (6 h) was found to be 10%. Moreover, the “CCNE1 HIBIT Protein Quantification Maximum” value in assay [2] stood at 47%. For the same compound, in assay [3], the “CDK2 HIBIT Protein Quantification Maximum” value came out at 84% and the half-maximal degradation concentration (DC50) worked out at 5.85 nM.

For `Cn1c(=O)n(C2CCC(=O)NC2=O)c2cccc(N3CCC(Cn4cc(S(=O)(=O)N5CCC(Nc6ncc7c(n6)N([C@@H]6CCC[C@@H](O)C6)C(=O)C76CC6)CC5)cn4)CC3)c21` (stereo partly drawn) [Compound 130, 3-(4-(4-((4-((4-((7′-((1R,3R)-3-Hydroxycyclohexyl)-6′-oxo-6′,7′-dihydrospiro[cyclopropane-1,5′-pyrrolo[2,3-d]pyrimidin]-2′-yl)amino)piperidin-1-yl)sulfonyl)-1H-pyrazol-1-yl)methyl)piperidin-1-yl)-3-methyl-2-oxo-2,3-dihydro-1H-benzo[d]imidazol-1-yl)piperidine-2,6-dione], the Dmax in assay [1] is 13%. Further, the “CCNE1 HIBIT Protein Quantification Maximum” value in assay [2] was 34%. In assay [3], the “CDK2 HIBIT Protein Quantification Maximum” value was 76% and half-maximal degradation (DC50) was put at 15.8 nM.

For `CC(c1cccc(S(=O)(=O)N2CC[C@H](Nc3ncc4c(n3)N([C@@H]3CCC[C@@H](O)C3)C(=O)C43CC3)[C@H](F)C2)c1)N1CCN(c2ccc3c(N4CCC(=O)NC4=O)nn(C)c3c2)CC1` (some centres unmarked) [Compound 187], the Dmax in assay [1] (6 h) was 11%. Further, the “CCNE1 HIBIT Protein Quantification Maximum” value in assay [2] was 45%. Also, in assay [3], the “CDK2 HIBIT Protein Quantification Maximum” value is 91% and the DC50 was found to be 4.32 nM.

Consider `Cn1nc(N2CCC(=O)NC2=O)c2ccc(C3CCN(Cc4cccc(S(=O)(=O)N5CCC(Nc6ncc7c(n6)N([C@@H]6CCC[C@@H](O)C6)C(=O)C76CC6)CC5)c4)CC3(F)F)cc21` (stereo partly drawn) [Compound 177, 1-[6-(3,3-difluoro-1-{[3-(4-{7′-[(1R,3R)-3-hydroxycyclohexyl]-6′-oxospiro[cyclopropane-1,5′-pyrrolo[2,3-d]pyrimidin]-2′-ylamino}piperidin-1-ylsulfonyl)phenyl]methyl}piperidin-4-yl)-1-methylindazol-3-yl]-1,3-diazinane-2,4-dione], for which the Dmax in assay [1] (6 h) turned out to be 14%. In addition, the “CCNE1 HIBIT Protein Quantification Maximum” value in assay [2] is 41%. Besides, in assay [3], the “CDK2 HIBIT Protein Quantification Maximum” value was 81% and the DC50 turned out to be 6.51 nM.

On to `Cn1nc(N2CCC(=O)NC2=O)c2ccc(C3CCN(Cc4cccc(S(=O)(=O)N5CC[C@H](Nc6ncc7c(n6)N([C@@H]6CCC[C@@H](O)C6)C(=O)C76CC6)[C@H](F)C5)c4)CC3)cc21` [Compound 156], for which the Dmax in assay [1] (6 h) is 9%. Besides, the “CCNE1 HIBIT Protein Quantification Maximum” value in assay [2] is 44%. In assay [3], the “CDK2 HIBIT Protein Quantification Maximum” value came to 81% and half-maximal degradation (DC50) was put at 1.66 nM.

For `CC1CCCC1N1C(=O)C2(CC2)c2cnc(NC3CCN(S(=O)(=O)N4CC5CN(C(=O)CCCc6cccc7c6n(C)c(=O)n7C6CCC(=O)NC6=O)CC5C4)CC3)nc21` (centres unmarked) [Compound 23], in assay [1] (6 h), the Dmax is 49%. For the same compound, in assay [2], the “CCNE1 HIBIT Protein Quantification Maximum” value stood at 20%. Besides, in assay [3], the “CDK2 HIBIT Protein Quantification Maximum” value stood at 64% and it took 98 nM to reach half-maximal degradation (DC50).

With `CC1CCCC1N1C(=O)C2(CC2)c2cnc(NC3CCN(S(=O)(=O)N4CC5C4CCN5C(=O)CCCc4cccc5c4n(C)c(=O)n5C4CCC(=O)NC4=O)CC3)nc21` (centres unmarked) [Compound 31], the Dmax in assay [1] (6 h) stood at 15%. For the same compound, in assay [2], the “CCNE1 HIBIT Protein Quantification Maximum” value was 14%. Further, in assay [3], the “CDK2 HIBIT Protein Quantification Maximum” value was determined as 62% and the 50% degradation concentration (DC50) came out at 17 nM.

As for `CC(C)[C@@H]1CN([C@H](C)c2cccc(S(=O)(=O)N3CC[C@H](Nc4ncc5c(n4)N([C@@H]4CCC[C@@H](O)C4)C(=O)C54CC4)[C@H](F)C3)c2)CCN1c1ccc2c(N3CCC(=O)NC3=O)nn(C)c2c1` [Compound 204], in assay [1] (6 h), the Dmax was found to be 15%. Moreover, the “CCNE1 HIBIT Protein Quantification Maximum” value in assay [2] amounted to 33%. Further, in assay [3], the “CDK2 HIBIT Protein Quantification Maximum” value stood at 85% and the 50% degradation concentration (DC50) amounted to 10.4 nM.

As for `CC1CCCC1N1C(=O)C2(CC2)c2cnc(NC3CCN(S(=O)(=O)C4CCN(C(=O)CCCCCc5ccc6c(c5)n(C)c(=O)n6C5CCC(=O)NC5=O)C4)CC3)nc21` (centres unmarked) [Compound 81], the Dmax in assay [1] (6 h) was determined as 14%. Also, the “CCNE1 HIBIT Protein Quantification Maximum” value in assay [2] was determined as 15%. Also, in assay [3], the “CDK2 HIBIT Protein Quantification Maximum” value was 50% and the DC50 was found to be 8 nM.

Take `CC1CCCC1N1C(=O)C2(CC2)c2cnc(NC3CCN(S(=O)(=O)N4CCCC45CCN(C(=O)CCCCCc4cccc6c4n(C)c(=O)n6C4CCC(=O)NC4=O)C5)CC3)nc21` (centres unmarked) [Compound 35]: the Dmax in assay [1] (6 h) amounted to 17%. The “CCNE1 HIBIT Protein Quantification Maximum” value in assay [2] is listed as 21%. In addition, the “CDK2 HIBIT Protein Quantification Maximum” value in assay [3] is recorded as 34%.

On to `Cn1nc(N2CCC(=O)NC2=O)c2ccc(C3CCN(Cc4cccc(S(=O)(=O)N5CCC(Nc6ncc7c(n6)N(c6cc(F)ccc6Cl)C(=O)C76CC6)CC5)c4)CC3)cc21` [Compound 162, 1-(6-{1-[(3-{4-[7′-(2-Chloro-5-fluorophenyl)-6′-oxospiro[cyclopropane-1,5′-pyrrolo[2,3-d]pyrimidin]-2′-ylamino]piperidin-1-ylsulfonyl}phenyl)methyl]piperidin-4-yl}-1-methylindazol-3-yl)-1,3-diazinane-2,4-dione], for which, in assay [1], the Dmax is 4%. Further, the “CCNE1 HIBIT Protein Quantification Maximum” value in assay [2] stood at 42%. Further, in assay [3], the “CDK2 HIBIT Protein Quantification Maximum” value was determined as 75% and the DC50 amounted to 8.03 nM.

Take `CC1CCCC1N1C(=O)C2(CC2)c2cnc(NC3CCN(S(=O)(=O)N4CC5CN(C(=O)CCCCc6ccc7c(c6)n(C)c(=O)n7C6CCC(=O)NC6=O)CC5C4)CC3)nc21` (centres unmarked) [Compound 103]: the Dmax in assay [1] (6 h) worked out at 0%. In assay [2], the “CCNE1 HIBIT Protein Quantification Maximum” value was determined as 7%. In addition, the “CDK2 HIBIT Protein Quantification Maximum” value in assay [3] was determined as 31%.

Turning to `Cn1c(=O)n(C2CCC(=O)NC2=O)c2ccc(N3CCN(Cc4cccc(S(=O)(=O)N5CCC(Nc6ncc7c(n6)N([C@@H]6CCC[C@@H](O)C6)C(=O)C76CC6)CC5)c4)CC3)cc21` (stereo partly drawn) [Compound 179, 3-[5-(4-{[3-(4-{7′-[(1R,3R)-3-Hydroxycyclohexyl]-6′-oxospiro[cyclopropane-1,5′-pyrrolo[2,3-d]pyrimidin]-2′-ylamino}piperidin-1-ylsulfonyl)phenyl]methyl}piperazin-1-yl)-3-methyl-2-oxo-1,3-benzodiazol-1-yl]piperidine-2,6-dione], in assay [1] (6 h), the Dmax is 15%. For the same compound, the “CCNE1 HIBIT Protein Quantification Maximum” value in assay [2] is 20%. Moreover, in assay [3], the “CDK2 HIBIT Protein Quantification Maximum” value was 78% and the DC50 amounted to 7.82 nM.
